Like-named read-outs stand apart in the source and are kept apart here.
Molecular target: SARS-CoV-2 PL^pro (Severe acute respiratory syndrome coronavirus 2, UniProt P0DTD1)
Assay: SARS-CoV-2 PL^pro enzymatic inhibition assay (substrate Z-RLRGG-AMC)
Format: biochemical
[1] = Table S2, PL^pro inhibitors, 40 nmol/L enzyme, 50 µmol/L substrate, read-out: IC50
[2] = Table S6, S/KM = 1/4, read-out: IC50 (μM) at S/KM 1/4
[3] = Table S6, S/KM = 2, read-out: IC50 (μM) at S/KM 2
[4] = Table S6, S/KM = 4, read-out: IC50 (μM) at S/KM 4
[5] = read-out: IC50 (μM) at S/KM 1/2
[6] = read-out: IC50 (μM) at S/KM 1/4
[7] = read-out: IC50 / inhibitory activity toward PL^pro
[8] = Table S3, representative dual inhibitors, read-out: IC50 for PL^pro

SMILES | IC50 [1] [µM] | IC50 [2] [µM] | IC50 [3] [µM] | IC50 [4] [µM] | IC50 (read-out: IC50 (μM) at S/KM 1) [µM] | IC50 [5] [µM] | IC50 [6] [µM] | IC50 (Table S6, S/KM = 1, read-out: IC50 (μM) at S/KM 1) [µM] | IC50 [7] [µM] | IC50 [8] [µM]
CCC(C(=O)NCc1ccco1)n1c(Cc2c(Cl)cccc2Cl)nc2ccccc21 (stereo not shown) [CD3226-D010] | 8.61 ± 3.07 | 7.6 ± 1 |  |  |  |  |  |  |  | 
CC(C(=O)NCc1ccco1)n1c(Cc2c(Cl)cccc2Cl)nc2ccccc21 (stereo not shown) [CD3531-C011] | 1.98 ± 0.23 |  | 2.4 ± 0.2 | 2.7 ± 0.1 | 2.2 ± 0.3 | 1.5 | 1.5 ± 0.4 |  |  | 
O=C(NCc1n[nH]c(=S)n1-c1ccc(Br)cc1)c1ccc(Cl)cc1Cl [JK0108-D008] | 58.8 ± 15.3 | 100 ± 29.6 | 200 ± 47.6 | 133 ± 14.7 |  | 94.6 ± 11.3 |  | 102 ± 1.2 | 58.8 ± 15.3 | 
CCOc1cc(C(=O)NCc2n[nH]c(=S)n2-c2ccc(Br)cc2)cc(OCC)c1OCC [JK0109-B004] | 43 ± 0.92 | 2.4 ± 0.1 | 8.5 ± 0.9 | 18.3 ± 1 | 5.9 ± 0.6 | 2.6 ± 0.5 |  |  |  | 43 ± 0.9
COc1ccc(-n2c(CNC(=O)COc3ccc(Cl)cc3Cl)n[nH]c2=S)cc1 [JK0109-B011] | 6.01 ± 0.02 |  | 12.4 ± 1.7 |  | 7.3 ± 0.1 | 7.4 ± 0.6 | 7.9 ± 1.7 |  | 6 | 
COc1ccc(-n2c(S)nnc2CNC(=O)c2cc(OC)c(OC)c(OC)c2)cc1 [JK0109-C011] | 21.2 ± 1.79 |  | 10.7 ± 0.7 | 18.6 ± 2.7 | 9.4 ± 2.9 | 7.1 ± 0.7 | 5.9 ± 0.2 |  |  | 21.2 ± 1.8
O=C(COc1ccc(Cl)cc1)NCc1n[nH]c(=S)n1-c1ccc(Br)cc1 [JK0109-H005] |  |  | 78.5 ± 5.7 | 91.6 ± 8.9 | 33 ± 17.9 | 21.9 ± 2 |  |  |  | 
O=c1sc2ccccc2n1Cc1n[nH]c(=S)n1-c1ccccc1 [JK0946-F007] |  |  | 105 ± 4.7 | 202 ± 50.9 | 43.9 ± 9 | 30.3 ± 2.3 |  |  |  | 

— publication PMC9871955, “High-throughput screening of SARS-CoV-2 main and papain-like protease inhibitors” (Protein & Cell, 2022)
